Series [1] has as its system hepatic mRNA of ER stress, inflammation and lipid metabolism genes. The experiment in a line: Hepatic mRNA quantification (qPCR, XBP-1 splicing) in treated mice. To be noted: liver; PBA with MTPi. It is filed as in vivo. The source says: FIGS. 6a and 6b. Liver samples from FIG. 16 were used to isolate total mRNA and to quantify expression of different candidate genes. Statistical analyses were as described in FIGS. 16-17.
FIGS. 9a and 9b. C57B/6J mice were fed a western diet for 8 weeks and then treated with MTP inhibitor and other indicated compounds for 8 days as described in FIG. 16. Liver samples were used to isolate mRNA and to quantify mRNA levels with different candidate genes. Stars on MTPi group represent comparison with the control group.
FIG. 16. Age matched wildtype C57/BL6J animals chow fed animals were treated with DMSO (control) or MTP inhibitor (MTPi) for one week. Age matched wildtype C57/BL6J were fed WD for one month and were administered MTPi, Lovastatin, (Lova), Pioglitazone (Pio) or 4-phenylbutyric acid (PBA) every day for one week. All drugs were administered by oral gavage. Animals were sacrificed on day 7 and livers were harvested. mRNA was extracted and subjected to qPCR analysis. * represent comparison DMSO control; # represent comparisons to WD control; @ represent comparisons to WD MTP inhibitor treated animals.
mRNA quantifications and primers used: Total RNA from tissues and cells were isolated using TriZol™ (Invitrogen). The purity and integrity of RNA were assessed by the A260/A280 ratio and 1% agarose gel electrophoresis, respectively. Only the RNAs with ratios more than 1.7 were used for cDNA synthesis. The first strand cDNA was synthesized using Omniscript RT (Qiagen) kit. Briefly, 2 μg of total RNA, 1 μM random primers (Invitrogen), 0.5 mM dNTP solution, and 0.5 U/μl Omniscript Reverse Transcriptase were incubated at 37° C. for 1 h in 20 μl of RT buffer and the reaction was terminated by incubating at 95° C. for 5 minutes. Each reaction of quantitative RT-PCR was carried out in a volume of 20 μl consisting of 5 μl cDNA sample (1:100 dilution of the first strand cDNA sample) and 15 μl of PCR master mix solution containing 1×PCR reaction buffer, 6 mM MgCl2, 200 nM primer pair, 0.025 U/μl HotStar Gold™ DNA polymerase, 200 μM dNTP solution, and 0.3 μl SYBR Green I solution (gPCR™ Core Kit for SYBR Green I, Eurogentec). The PCR was carried out by incubating the reaction mixture first for 10 minute at 95° C. followed by 40 cycles of 15 sec incubations at 95° C. and 1 min at 60° C. in the ABI 7000 SDS PCR machine. The data were analyzed using ΔΔCT method according to manufacturer's instruction and presented as arbitrary units. The primers used in this study were designed with the PrimerExpress 3.0 software (Applied Biosystems, CA) and are presented as Table 1.
On the technique in general: Real-time PCR tracks product formation cycle by cycle.

In series [2] the test system is C57Bl/6J mice fed either a chow or western diet. The experiment in a line: MTP inhibitor BMS-212122-01 with or without lovastatin, pioglitazone or PBA in chow or western diet fed C57Bl/6J mice. It is filed as in vivo. To be noted: WD one month. The protocol:
FIG. 13. Age matched wildtype C57/Bl6J animals chow fed animals were treated with DMSO (control) or MTP inhibitor (MTPi) for one week. […] All drugs were administered by oral gavage. Animals were sacrificed on day 7 and plasma and livers were harvested and analyzed. * represent comparison to DMSO control; # represent comparisons to WD control; @ represent comparisons to WD MTP inhibitor treatment.
FIG. 18. Age matched wildtype C57/BL6J were fed WD for one month and were administered MTPi, or 4-phenylbutyric acid (PBA) everyday for one week. All drugs were administered by oral gavage. Animals were sacrificed on day 7 and livers were harvested. * represent comparison DMSO control; # represent comparisons to HF MTP inhibitor treated animals.
C57BL/6J Black 6 mice (stock number 000664) were obtained from Jackson Laboratory and used for chow fed and western diet fed experiments. MTP inhibitor (BMS […]) (1 mg/kg/day), Lovastatin, Pioglitazone (Toronto Research Chemicals P471000) (25 mg/kg/day) and 4-phenylbutyric acid (Calbiochem 820986) (1 g/kg/day) were administered by oral gavage. Chow fed animals were treated for one week with either DMSO or MTP inhibitor. Western diet fed animals were fed DMSO, MTP inhibitor, Pioglitazone, MTP inhibitor+Pioglitazone, Lovastatin, MTP inhibitor+Lovastatin, 4-phenylbutyric acid, and MTP inhibitor+4-phenylbutyric acid. Chow fed animals were also injected with either PBS or Tunicamycin and animals were sacrificed at 4, 8, 12 and 24 hours.
All animals were kept in 07:00-19:00 h lighting schedule. […] Food was withdrawn 16 h before the sacrifice of the mice. On the day of the experiment, mice were anesthetized and blood was collected from the heart. Liver was collected, washed in ice-cold PBS, cut into small pieces and used for lipid extraction, histological staining, to measure different protein activities/quantities and for mRNA analysis. Lipids were extracted from the tissue homogenates following the Bligh and Dyer method. Triglyceride (Infinity TM Triglyceride, TR22421) and total cholesterol (Infinity TM Cholesterol, TR13421) levels in the tissues were determined using commercial kits (Thermo Scientific). Free cholesterol and free fatty acid levels were measured using kits from Wako Chemicals (Germany). Esterified cholesterol was calculated by subtracting the free cholesterol from the total cholesterol.
We next studied the effects of chemical inhibition of MTP in C57Bl/6J mice fed either a chow or western diet (WD) for 5 weeks. Chow fed animals were orally gavaged with either DMSO or MTP inhibitor BMS-212122-01 (MTPi; 1 mg/kg/day) for one week. WD fed animals were treated with DMSO, MTP inhibitor with or without lovastatin (50 mg/kg/day) or pioglitazone (25 mg/kg/day) daily by oral gavage for one week.

Experimental findings from patent US8455523B2, “Compositions and methods for treating hyperlipidemias” (The Research Foundation of State University of New York, priority 2010, dated 2013) are described below.

For `O=C(O)CCCc1ccccc1` [PBA, 4-phenylbutyric acid], the “mRNA levels of ER stress markers vs MTPi treated animals” value in series [1] is given as “significantly lower”. Moreover, the “hepatic triglycerides and free cholesterol (hepatic lipids)” value in series [2] (MTPi ± PBA one week) is given as “did not reduce”. The “MTP activity, hepatic and plasma lipids” value in series [2] (PBA 1 g/kg/day alone or co-administered with MTP inhibitor, one week) was “no effect”. Also, in series [2] (PBA 1 g/kg/day with MTP inhibitor, one week), the “rises in plasma AST/ALT after MTP inhibition” value was “spared increases”.
